The results in this text go back to US20210221866A1, “PROTEASE-RESISTANT LIPIDATED GLP-1 ANALOGS” (MEDIMMUNE LIMITED, priority 2015, published 2021).

Format in all cases: cell-based
In assay [1] the target is T1, GLP-1R (INS1e cells) (Rattus norvegicus, UniProt P32301).
T1 construct: endogenous in cells; host or cells: INS1e cells
T1 sequence (P32301 22-463): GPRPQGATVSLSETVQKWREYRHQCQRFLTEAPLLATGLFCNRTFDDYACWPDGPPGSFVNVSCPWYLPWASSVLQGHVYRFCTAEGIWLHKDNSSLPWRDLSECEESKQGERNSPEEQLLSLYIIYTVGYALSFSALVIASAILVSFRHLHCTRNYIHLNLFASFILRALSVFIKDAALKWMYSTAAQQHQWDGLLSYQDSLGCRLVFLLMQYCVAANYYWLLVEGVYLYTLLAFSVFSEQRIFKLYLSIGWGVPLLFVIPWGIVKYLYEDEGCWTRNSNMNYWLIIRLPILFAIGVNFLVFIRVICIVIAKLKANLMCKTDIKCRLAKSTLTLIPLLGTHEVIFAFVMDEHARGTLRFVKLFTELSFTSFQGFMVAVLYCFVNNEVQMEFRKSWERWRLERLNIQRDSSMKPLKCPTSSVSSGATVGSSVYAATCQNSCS
Description: INS1e assay, cAMP activity at GLP-1R.

Assay [2] deals with T2, human glucose-dependent insulinotropic peptide receptor (GIPR) (Homo sapiens, UniProt P48546).
T2 construct: expressed in transfected cells; host or cells: HEK293 cells or CHO cells
T2 sequence (P48546 22-466): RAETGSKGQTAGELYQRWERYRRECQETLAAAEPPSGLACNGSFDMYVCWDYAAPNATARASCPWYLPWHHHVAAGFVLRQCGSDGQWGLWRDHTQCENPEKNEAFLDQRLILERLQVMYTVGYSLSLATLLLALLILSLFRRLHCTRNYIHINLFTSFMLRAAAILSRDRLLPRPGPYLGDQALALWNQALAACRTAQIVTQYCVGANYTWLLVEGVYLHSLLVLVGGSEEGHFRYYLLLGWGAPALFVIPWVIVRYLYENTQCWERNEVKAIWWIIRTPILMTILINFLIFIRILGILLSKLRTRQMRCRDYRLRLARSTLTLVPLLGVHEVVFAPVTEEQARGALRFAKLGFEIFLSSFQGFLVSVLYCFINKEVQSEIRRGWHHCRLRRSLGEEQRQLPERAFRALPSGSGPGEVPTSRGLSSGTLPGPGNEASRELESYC
Description: cAMP assay, human GIPR cells. An outline of the steps: (§1)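 Peptide-stimulated cAMP measured by two-step HTRF after a 30 min room-temperature incubation with receptor-expressing cells (hGLP-1R, hGIPR at 1×10^5 cells/ml; hGCGR at 2×10^5 cells/ml). Duplicate dilutions; EC50 from 4-parameter logistic fit of % Delta F.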
(cAMP levels reflect the balance of adenylyl cyclase and phosphodiesterase activity.)

Assay [3] deals with T3, human glucagon receptor (GCGR) (Homo sapiens, UniProt P47871).
T3 construct: expressed in transfected cells; host or cells: HEK293 cells or CHO cells
T3 sequence (P47871 26-477): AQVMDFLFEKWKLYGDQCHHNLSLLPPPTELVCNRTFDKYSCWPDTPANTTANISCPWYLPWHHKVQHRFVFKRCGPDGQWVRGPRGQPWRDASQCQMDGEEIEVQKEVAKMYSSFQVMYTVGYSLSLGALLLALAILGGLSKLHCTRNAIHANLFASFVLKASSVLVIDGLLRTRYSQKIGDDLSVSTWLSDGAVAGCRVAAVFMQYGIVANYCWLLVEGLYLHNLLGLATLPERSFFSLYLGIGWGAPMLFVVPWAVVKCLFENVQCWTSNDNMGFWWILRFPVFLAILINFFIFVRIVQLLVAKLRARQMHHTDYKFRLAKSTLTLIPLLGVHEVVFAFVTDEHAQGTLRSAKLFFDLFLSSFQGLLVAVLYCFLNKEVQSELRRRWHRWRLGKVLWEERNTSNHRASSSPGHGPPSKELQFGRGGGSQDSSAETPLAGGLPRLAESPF
Description: cAMP assay, human GCGR cells. An outline of the steps:
as §1

Assay [4] deals with T4, human GLP-1 receptor (GLP-1R) (Homo sapiens, UniProt P43220).
T4 construct: expressed in transfected cells; host or cells: HEK293 cells or CHO cells
T4 sequence (P43220 24-463): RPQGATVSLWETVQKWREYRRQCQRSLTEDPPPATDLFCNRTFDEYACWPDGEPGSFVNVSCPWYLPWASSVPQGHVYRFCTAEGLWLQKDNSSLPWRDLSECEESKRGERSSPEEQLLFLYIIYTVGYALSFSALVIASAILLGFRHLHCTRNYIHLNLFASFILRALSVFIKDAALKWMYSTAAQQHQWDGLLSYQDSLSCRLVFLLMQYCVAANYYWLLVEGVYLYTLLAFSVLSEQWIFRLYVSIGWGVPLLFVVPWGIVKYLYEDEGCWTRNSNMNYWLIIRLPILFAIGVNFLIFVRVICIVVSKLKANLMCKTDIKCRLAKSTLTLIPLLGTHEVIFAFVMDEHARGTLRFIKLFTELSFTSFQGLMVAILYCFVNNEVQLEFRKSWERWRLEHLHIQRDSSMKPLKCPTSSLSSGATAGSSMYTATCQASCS
Description: cAMP assay, human GLP-1R cells. The conditions noted are these: cAMP activity. In a few lines: as §1

[5] abbreviates: Table 8, substituted and mono-lipidated peptides, mean of n1 and n2, read-out: INS1e assay EC50 Mean pM GLP-1R.
Where [6] appears, read: mean of n1 and n2, read-out: Mean pM GLP-1R.

Where two headings read alike, the source gives them in different places. Numbered stars: 1 amine (or outer) side, 2 acyl side, 3 side chain; on linkers, the order of the positions; unused ones are H or OH. Square brackets hold non-standard residues; d marks the D form. Side chains are listed from the residue outwards. Peptide text beside a SMILES is read from it. * marks the point of attachment. γGlu = O=C(O)[C@H](CCC(=O)[*:2])N[*:1]; αMeF = C[C@](N)(Cc1ccccc1)C(=O)O; αMeK = C[C@](N)(CCCCN)C(=O)O; Lauroyl = CCCCCCCCCCCC(=O)*; αMeS = C[C@](N)(CO)C(=O)O; AEEA = NCCOCCOCC(=O)O; Aib = CC(C)(N)C(=O)O A value given as a limit tells only on which side of the number the result lay.

As for `CCCCCCCCCCCC(=O)N[C@@H](CCC(=O)NCCOCCOCC(=O)NCCOCCOCC(=O)NCCCC[C@H](NC(=O)[C@H](C)NC(=O)[C@@H](NC(=O)[C@H](Cc1ccccc1)NC(=O)[C@H](CCCCNC(=O)COCCOCCNC(=O)COCCOCCNC(=O)CC[C@H](NC(=O)CCCCCCCCCCC)C(=O)O)NC(=O)[C@](C)(CCCCN)NC(=O)[C@H](C)NC(=O)[C@H](C)NC(=O)[C@H](CCC(=O)O)NC(=O)CNC(=O)[C@H](CCC(=O)O)NC(=O)[C@H](CCCCNC(=O)COCCOCCNC(=O)COCCOCCNC(=O)CC[C@H](NC(=O)CCCCCCCCCCC)C(=O)O)NC(=O)[C@H](Cc1ccc(O)cc1)NC(=O)[C@H](CO)NC(=O)[C@](C)(CO)NC(=O)[C@@H](NC(=O)[C@H](CC(=O)O)NC(=O)[C@H](CO)NC(=O)[C@@H](NC(=O)[C@](C)(Cc1ccccc1)NC(=O)[C@H](CO)NC(=O)CNC(=O)[C@H](CCC(=O)O)NC(=O)C(C)(C)NC(=O)[C@@H](N)Cc1c[nH]cn1)[C@@H](C)O)C(C)C)[C@@H](C)CC)C(=O)N[C@H](C(=O)N[C@H](C(=O)N[C@@H](CCC(=O)O)C(=O)NCC(=O)NCC(N)=O)C(C)C)C(C)C)C(=O)O` [compound 470] (H-H[Aib]EGS[αMeF]TSDV[αMeS]SYK([AEEA-AEEA-γGlu-Lauroyl])EGEAA[αMeK]K([AEEA-AEEA-γGlu-Lauroyl])FIAK([AEEA-AEEA-γGlu-Lauroyl])VVEGG-NH2; N-terminus assumed), the EC50 in assay [1] (Table 12, tris-lipidated peptides, mean of n1 and n2, read-out: INS1e assay EC50 Mean pM GLP-1R) is 3660 pM.
`CCCCCCCCCCCC(=O)N[C@@H](CCC(=O)NCCOCCOCC(=O)NCCOCCOCC(=O)NCCCC[C@H](NC(=O)[C@H](CC(=O)O)NC(=O)[C@H](CO)NC(=O)[C@@H](NC(=O)[C@](C)(Cc1ccccc1)NC(=O)[C@H](CO)NC(=O)CNC(=O)[C@H](CCC(=O)O)NC(=O)C(C)(C)NC(=O)[C@@H](N)Cc1c[nH]cn1)[C@@H](C)O)C(=O)N[C@@H](CO)C(=O)N[C@@H](CO)C(=O)N[C@@H](Cc1ccc(O)cc1)C(=O)N[C@@H](CC(C)C)C(=O)N[C@@H](CCC(=O)O)C(=O)NCC(=O)N[C@@H](CCC(=O)O)C(=O)N[C@@H](C)C(=O)N[C@@H](C)C(=O)N[C@@](C)(CCCCN)C(=O)N[C@@H](CCC(=O)O)C(=O)N[C@@H](Cc1ccccc1)C(=O)N[C@H](C(=O)N[C@@H](CCCCNC(=O)COCCOCCNC(=O)COCCOCCNC(=O)CC[C@H](NC(=O)CCCCCCCCCCC)C(=O)O)C(=O)N[C@@H](Cc1c[nH]c2ccccc12)C(=O)N[C@H](C(=O)N[C@H](C(=O)N[C@@H](CCC(=O)O)C(=O)NCC(=O)NCC(N)=O)C(C)C)C(C)C)[C@@H](C)CC)C(=O)O` [compound 256] (H-H[Aib]EGS[αMeF]TSDK([AEEA-AEEA-γGlu-Lauroyl])SSYLEGEAA[αMeK]EFIK([AEEA-AEEA-γGlu-Lauroyl])WVVEGG-NH2; N-terminus assumed): the EC50 in assay [2] (Table 9, bis-lipidated peptides, first replicate, read-out: Primary assay EC50 GIP-R (n1)) is no less than 22.2 nM; in assay [2] (Table 9, bis-lipidated peptides, second replicate, read-out: Primary assay EC50 GIP-R (n2)), no less than 22.2 nM; in assay [1] (Table 10, bis-lipidated peptides, mean of n1 and n2, read-out: INS1e assay EC50 Mean pM GLP-1R), 1300 pM; in assay [3] (Table 9, bis-lipidated peptides, first replicate, read-out: Primary assay EC50 Gluc-R (n1)), no less than 22.2 nM; in assay [3] (Table 9, bis-lipidated peptides, second replicate, read-out: Primary assay EC50 Gluc-R (n2)), no less than 22.2 nM.
Take `CC[C@H](C)[C@H](NC(=O)[C@](C)(Cc1ccccc1)NC(=O)[C@H](CCC(=O)O)NC(=O)[C@H](CCC(=O)O)NC(=O)[C@H](C)NC(=O)[C@H](C)NC(=O)[C@H](CCC(=O)O)NC(=O)CNC(=O)[C@H](CCC(=O)O)NC(=O)[C@H](CC(C)C)NC(=O)[C@](C)(Cc1ccccc1)NC(=O)[C@H](CO)NC(=O)[C@](C)(CO)NC(=O)[C@@H](NC(=O)[C@H](CC(=O)O)NC(=O)[C@H](CO)NC(=O)[C@@H](NC(=O)[C@](C)(Cc1ccccc1)NC(=O)[C@H](CO)NC(=O)CNC(=O)[C@H](CCC(=O)O)NC(=O)C(C)(C)NC(=O)[C@@H](N)Cc1c[nH]cn1)[C@@H](C)O)C(C)C)C(=O)N[C@@H](C)C(=O)N[C@@](C)(Cc1ccccc1)C(=O)N[C@H](C(=O)N[C@H](C(=O)N[C@@H](CCC(=O)O)C(=O)NCC(=O)NCC(N)=O)C(C)C)C(C)C` [compound 44] (H-H[Aib]EGS[αMeF]TSDV[αMeS]S[αMeF]LEGEAAEE[αMeF]IA[αMeF]VVEGG-NH2): the values for the EC50 in assay [1] (setting [5]) and in assay [4] (setting [6]) were 455 pM and 6.7 pM, respectively.
In the case of `CCCCCCCCCCCCCCCCCC(=O)NCCOCCOCC(=O)NCCOCCOCC(=O)NCCOCCOCC(=O)NCCCC[C@H](NC(=O)[C@H](C)NC(=O)[C@H](C)NC(=O)[C@H](CCC(=O)O)NC(=O)CNC(=O)[C@H](CCC(=O)O)NC(=O)[C@H](CC(C)C)NC(=O)[C@](C)(Cc1ccccc1)NC(=O)[C@H](CO)NC(=O)[C@H](CO)NC(=O)[C@@H](NC(=O)[C@H](CC(=O)O)NC(=O)[C@H](CO)NC(=O)[C@@H](NC(=O)[C@](C)(Cc1ccccc1)NC(=O)[C@H](CO)NC(=O)CNC(=O)[C@H](CCC(=O)O)NC(=O)C(C)(C)NC(=O)[C@@H](N)Cc1c[nH]cn1)[C@@H](C)O)C(C)C)C(=O)N[C@@H](CCC(=O)O)C(=O)N[C@@](C)(Cc1ccccc1)C(=O)N[C@H](C(=O)N[C@@H](C)C(=O)N[C@@](C)(Cc1ccccc1)C(=O)N[C@H](C(=O)N[C@H](C(=O)N[C@@](C)(CCCCN)C(=O)NCC(=O)NCC(N)=O)C(C)C)C(C)C)[C@@H](C)CC` [compound 52], the EC50 in assay [1] (setting [5]) was 20 pM.
Consider `CCCCCCCCCCCCCCCC(=O)N[C@@H](CCC(=O)NCCCC[C@H](NC(=O)[C@H](CCC(=O)O)NC(=O)[C@](C)(CCCCN)NC(=O)[C@H](C)NC(=O)[C@H](C)NC(=O)[C@H](CCC(=O)O)NC(=O)CNC(=O)[C@H](CCC(=O)O)NC(=O)[C@H](CC(C)C)NC(=O)[C@](C)(Cc1ccccc1)NC(=O)[C@H](CO)NC(=O)[C@](C)(CO)NC(=O)[C@@H](NC(=O)[C@H](CC(=O)O)NC(=O)[C@H](CO)NC(=O)[C@@H](NC(=O)[C@](C)(Cc1ccccc1)NC(=O)[C@H](CO)NC(=O)CNC(=O)[C@H](CCC(=O)O)NC(=O)C(C)(C)NC(=O)[C@@H](N)Cc1c[nH]cn1)[C@@H](C)O)C(C)C)C(=O)N[C@H](C(=O)N[C@@H](C)C(=O)N[C@@](C)(Cc1ccccc1)C(=O)N[C@H](C(=O)N[C@H](C(=O)N[C@@](C)(CCCCN)C(=O)NCC(=O)NCC(N)=O)C(C)C)C(C)C)[C@@H](C)CC)C(=O)O` [compound 78], for which the EC50 worked out at 346 pM in assay [1] (setting [5]); 346 pM in assay [1] (Table 8, substituted and mono-lipidated peptides, replicate n2, read-out: INS1e assay EC50 GLP-1R n2).
In the case of `CC[C@H](C)[C@H](NC(=O)[C@](C)(Cc1ccccc1)NC(=O)[C@H](CCC(=O)O)NC(=O)[C@H](CCCCNC(=O)CCCCCNC(=O)CCCCCCCCCCCCCCCCC(=O)O)NC(=O)[C@H](C)NC(=O)[C@H](C)NC(=O)[C@H](CCC(=O)O)NC(=O)CNC(=O)[C@H](CCC(=O)O)NC(=O)[C@H](CC(C)C)NC(=O)[C@](C)(Cc1ccccc1)NC(=O)[C@H](CO)NC(=O)[C@](C)(CO)NC(=O)[C@@H](NC(=O)[C@H](CC(=O)O)NC(=O)[C@H](CO)NC(=O)[C@@H](NC(=O)[C@](C)(Cc1ccccc1)NC(=O)[C@H](CO)NC(=O)CNC(=O)[C@H](CCC(=O)O)NC(=O)C(C)(C)NC(=O)[C@@H](N)Cc1c[nH]cn1)[C@@H](C)O)C(C)C)C(=O)N[C@@H](C)C(=O)N[C@@](C)(Cc1ccccc1)C(=O)N[C@H](C(=O)N[C@H](C(=O)N[C@@](C)(CCCCN)C(=O)NCC(=O)NCC(N)=O)C(C)C)C(C)C` [compound 158], the EC50 in assay [2] (cAMP activity, first determination (n1), read-out: Primary assay EC50 GIP-R) is no less than 28 nM; in assay [2] (cAMP activity, second determination (n2), read-out: Primary assay EC50 GIP-R) it was no less than 28 nM; in assay [3] (cAMP activity, second determination (n2), read-out: Primary assay EC50 Gluc-R), no less than 28 nM; in assay [4] (first determination (n1), read-out: Primary assay EC50 GLP-1R n1) it was 140 pM; in assay [4] (setting [6]), 148 pM; in assay [4] (second determination (n2), read-out: Primary assay EC50 GLP-1R n2) it was 160 pM.
